US9650339B2, “Inhibitors of histone demethylases” (Gilead Sciences, Inc., priority 2013, dated 2017)

Key:
Format in all cases: cell-based
KDM4A = biological target: T1, KDM4A (Homo sapiens, UniProt O75164); assay: Histone lysine demethylase immunofluorescence assay, U2OS cells transfected with KDM4A; details: U2OS cells transfected with pCMVHA KDM4A; mark detected H3K9me3; 20 hours
T1 construct: Full length; host or cells: U2OS
T1 sequence (O75164 1-1064): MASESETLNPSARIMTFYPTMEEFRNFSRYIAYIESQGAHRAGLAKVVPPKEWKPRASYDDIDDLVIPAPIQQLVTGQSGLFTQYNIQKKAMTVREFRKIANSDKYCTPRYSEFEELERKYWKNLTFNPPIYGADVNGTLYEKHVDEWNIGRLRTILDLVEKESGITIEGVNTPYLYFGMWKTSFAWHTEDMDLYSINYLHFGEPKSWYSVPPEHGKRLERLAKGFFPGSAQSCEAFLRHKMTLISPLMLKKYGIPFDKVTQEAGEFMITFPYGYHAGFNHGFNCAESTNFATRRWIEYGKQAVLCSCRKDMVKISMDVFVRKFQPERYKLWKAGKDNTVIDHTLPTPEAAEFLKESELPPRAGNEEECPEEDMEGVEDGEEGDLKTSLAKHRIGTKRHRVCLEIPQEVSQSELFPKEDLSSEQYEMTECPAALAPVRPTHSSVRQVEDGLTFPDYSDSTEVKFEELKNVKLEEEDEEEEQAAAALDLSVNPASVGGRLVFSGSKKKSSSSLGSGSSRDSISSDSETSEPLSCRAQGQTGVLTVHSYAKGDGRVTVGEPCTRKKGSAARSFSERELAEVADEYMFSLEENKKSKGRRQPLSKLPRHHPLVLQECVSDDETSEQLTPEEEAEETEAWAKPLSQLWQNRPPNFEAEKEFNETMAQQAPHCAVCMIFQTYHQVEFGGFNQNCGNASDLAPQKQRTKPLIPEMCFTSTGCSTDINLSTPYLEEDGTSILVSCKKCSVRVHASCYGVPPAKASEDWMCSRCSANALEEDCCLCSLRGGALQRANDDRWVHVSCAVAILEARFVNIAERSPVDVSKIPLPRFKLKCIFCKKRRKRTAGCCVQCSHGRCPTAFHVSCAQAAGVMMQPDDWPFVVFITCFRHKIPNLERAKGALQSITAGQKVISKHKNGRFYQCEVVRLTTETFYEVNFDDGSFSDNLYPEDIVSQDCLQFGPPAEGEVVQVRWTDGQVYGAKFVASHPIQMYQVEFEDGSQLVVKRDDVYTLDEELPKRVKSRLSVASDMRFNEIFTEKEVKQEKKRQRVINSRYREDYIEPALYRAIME
Experimental: (§1) U2OS cells were seeded 24 hours before transfection. Transfection was performed with Fugene HD transfection reagent as recommended by the manufacturer. 6 hours after transfection, the cells were harvested and seeded into multi well plates into media containing compound. The media used was DMEM containing 10% FBS and pen/strep. 20 hours after incubation of cells with compounds, the cells were washed in PBS, harvested by fixation with formaldehyde 4% aqueous solution, and washed in PBS. Subsequently, the cells were permeabilized in PBS with 0.2% Triton X-100 for. Blocking was performed in PBS with 0.2% Triton X-100 and 5% FBS. The cells were incubated with primary antibodies in blocking solution over night at 4° C. The primary antibodies used in the assays were HA.11 (Covance, MMS-101P) and the antibody detecting the mark specified in the table below. After incubation with primary antibodies, the cells were washed with PBS, incubated with secondary antibodies (Alexa fluor 594 goat anti rabbit IgG, Invitrogen, A11012; Alexa flour 488 donkey anti mouse IgG, Invitrogen, A21202) and Hoechst, (Sigma, 33342) in blocking solution, and washed again with PBS. Finally, PBS was added and high throughput imaging and analysis were performed by an IN Cell Analyzer 1000 (GE Healthcare). The robot software analyzed individual cells and divided these into HA+ (transfected cells) and HA− (non-transfected cells). The IC50 values were based on an average measure of the staining of the mark specified in the table below in the transfected cells.

KDM2A = biological target: T2, KDM2A (Homo sapiens, UniProt Q9Y2K7); assay: Histone lysine demethylase immunofluorescence assay, U2OS cells transfected with KDM2A; details: U2OS cells transfected with pCMVHA KDM2A; mark detected H3K36me2; 20 hours
T2 construct: Full length; host or cells: U2OS
T2 sequence (Q9Y2K7 1-1162): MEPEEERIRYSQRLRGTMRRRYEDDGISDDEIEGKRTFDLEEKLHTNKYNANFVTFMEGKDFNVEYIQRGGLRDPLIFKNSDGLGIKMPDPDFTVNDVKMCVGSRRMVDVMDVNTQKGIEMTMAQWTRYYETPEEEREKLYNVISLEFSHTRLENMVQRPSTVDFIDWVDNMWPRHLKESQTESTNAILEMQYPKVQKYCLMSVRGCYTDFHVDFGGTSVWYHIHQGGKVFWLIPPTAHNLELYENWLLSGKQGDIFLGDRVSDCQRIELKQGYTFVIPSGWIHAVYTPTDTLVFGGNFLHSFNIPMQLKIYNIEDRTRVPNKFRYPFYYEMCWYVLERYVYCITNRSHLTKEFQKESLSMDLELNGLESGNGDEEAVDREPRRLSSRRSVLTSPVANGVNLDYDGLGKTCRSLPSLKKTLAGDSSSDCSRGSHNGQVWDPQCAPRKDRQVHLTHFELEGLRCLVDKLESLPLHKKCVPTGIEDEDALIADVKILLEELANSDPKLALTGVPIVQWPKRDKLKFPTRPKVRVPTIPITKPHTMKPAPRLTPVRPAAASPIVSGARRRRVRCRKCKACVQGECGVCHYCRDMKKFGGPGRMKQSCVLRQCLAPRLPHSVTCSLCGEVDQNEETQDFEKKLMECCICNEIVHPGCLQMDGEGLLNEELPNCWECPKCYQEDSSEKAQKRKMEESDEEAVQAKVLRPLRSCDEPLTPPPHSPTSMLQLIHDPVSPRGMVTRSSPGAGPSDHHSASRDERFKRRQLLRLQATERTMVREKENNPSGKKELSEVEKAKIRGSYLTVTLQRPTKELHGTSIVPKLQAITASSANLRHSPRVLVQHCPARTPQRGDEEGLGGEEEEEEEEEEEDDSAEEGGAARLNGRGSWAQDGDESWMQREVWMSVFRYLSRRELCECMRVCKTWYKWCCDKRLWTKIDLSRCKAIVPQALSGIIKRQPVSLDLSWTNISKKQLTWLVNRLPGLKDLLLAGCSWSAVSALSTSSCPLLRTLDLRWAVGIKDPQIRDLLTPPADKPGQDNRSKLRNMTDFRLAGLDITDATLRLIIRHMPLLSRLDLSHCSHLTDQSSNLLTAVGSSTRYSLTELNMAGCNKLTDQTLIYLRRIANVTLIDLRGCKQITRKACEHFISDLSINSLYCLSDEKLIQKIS
Experimental: as §1

KDM6B = biological target: T3, KDM6B (Homo sapiens, UniProt O15054); assay: Histone lysine demethylase immunofluorescence assay, U2OS cells transfected with KDM6B; details: U2OS cells transfected with pCMVHA KDM6B; mark detected H3K27me2; 20 hours
T3 construct: (a.a. 1026-1682); host or cells: U2OS
Experimental: as §1

T3 sequence (O15054 1026-1682 isoform O15054-1): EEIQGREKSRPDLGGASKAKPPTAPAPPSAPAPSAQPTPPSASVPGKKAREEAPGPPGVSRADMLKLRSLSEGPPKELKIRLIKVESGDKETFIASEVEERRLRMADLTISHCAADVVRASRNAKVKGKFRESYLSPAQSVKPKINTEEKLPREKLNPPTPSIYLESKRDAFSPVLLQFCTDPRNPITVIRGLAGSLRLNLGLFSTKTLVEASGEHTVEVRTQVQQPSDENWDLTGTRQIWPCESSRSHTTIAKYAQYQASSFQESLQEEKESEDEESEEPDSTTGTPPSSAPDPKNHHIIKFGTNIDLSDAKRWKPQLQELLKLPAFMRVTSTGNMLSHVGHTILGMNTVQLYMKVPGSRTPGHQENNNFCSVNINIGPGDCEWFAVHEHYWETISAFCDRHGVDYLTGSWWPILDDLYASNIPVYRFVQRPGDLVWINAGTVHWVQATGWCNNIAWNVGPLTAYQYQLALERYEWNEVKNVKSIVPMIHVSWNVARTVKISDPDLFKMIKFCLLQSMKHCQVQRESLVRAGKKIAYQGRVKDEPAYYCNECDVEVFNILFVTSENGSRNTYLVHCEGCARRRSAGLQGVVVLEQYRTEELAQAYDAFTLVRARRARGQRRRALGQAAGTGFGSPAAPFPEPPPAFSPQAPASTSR

Structure (SMILES)	IC50 (KDM4A) [nM]	IC50 (KDM2A) [nM]	IC50 (KDM6B) [nM]
CCN(CCN(C)C)C(=O)CNCc1cc(CNC(=O)C(F)(F)F)ccn1 [Compound 25, N-[(2-{[({[2-(dimethylamino)ethyl]-(ethyl)carbamoyl}-methyl)amino]methyl}-pyrtdin-4-yl)methyl]-2,2,2-trifluoroacetamide]	250 to 2500	> 2500	> 2500
CCN(CCN(C)C)C(=O)CNCc1cc(C2OCC3(CC3)CN2C(=O)C(F)(F)F)ccn1 (centres unmarked) [Compound 91, N-[2--(dimethylamino)-ethyl]-N-ethyl-2-[({4-[7-(trifluoroacetyl)-5-oxa-7-azaspiro[2.5]-octan-6-yl]pyridin-2-yl}methyl)amino]-acetamide]	< 250	> 2500	> 2500
CN(Cc1ccccc1F)C(=O)CNCc1cc(/C=N/CCO)ccn1 [Compound 92, N-[(2-fluorophenyl)methyl]-2-[({4-[[(2-hydroxyethyl)imino]-methyl]pyridin-2-yl}methyl)amino]-N-methylacetamide]	–	> 2500	–
OCC/N=C/c1ccnc(CNCCc2ccccc2OCc2ccccc2)c1 [Compound 93, 2-[({2-[({2-[2-(benzyloxy)phenyl]-ethyl}amino)methyl]-pyridin-4-yl}methylidene)-amino]ethan-1-ol]	–	> 2500	–
CCN(CCC#N)C(=O)CNCc1cc(/C=N/CCO)ccn1 [Compound 94, N-(2-cyanoethyl)-N-ethyl-2-[({4-[[(2-hydroxyethyl)imino]-methyl]pyridin-2-yl}methyl)amino]-acetamide]	–	> 2500	–
CC(C)C[C@H](NCc1cc(/C=N/CCO)ccn1)C(=O)N1CCCCC1 [Compound 95, (2S)-2-[({4-[[(2-hydroxyethyl)imino]-methyl]pyridin-2-yl}methyl)amino]-4-methyl-1-(piperidin-1-yl)pentan-1-one]	–	> 2500	–
CN(CC(=O)N1CCCCC1)Cc1cc(C=O)ccn1 [Compound 120, 2-({methyl[2-oxo-2-(piperidin-1-yl)ethyl]amino}-methyl)pyridine-4-carbaldehyde]	–	> 2500	–
